Target: T1, human DGAT2 (Homo sapiens, UniProt Q96PD7)
T1 construct: FLAG (DYKDDDDK); made in house; host or cells: Sf-21 insect cells (BacPAK baculovirus system); membrane fraction used
T1 sequence (Q96PD7 1-388): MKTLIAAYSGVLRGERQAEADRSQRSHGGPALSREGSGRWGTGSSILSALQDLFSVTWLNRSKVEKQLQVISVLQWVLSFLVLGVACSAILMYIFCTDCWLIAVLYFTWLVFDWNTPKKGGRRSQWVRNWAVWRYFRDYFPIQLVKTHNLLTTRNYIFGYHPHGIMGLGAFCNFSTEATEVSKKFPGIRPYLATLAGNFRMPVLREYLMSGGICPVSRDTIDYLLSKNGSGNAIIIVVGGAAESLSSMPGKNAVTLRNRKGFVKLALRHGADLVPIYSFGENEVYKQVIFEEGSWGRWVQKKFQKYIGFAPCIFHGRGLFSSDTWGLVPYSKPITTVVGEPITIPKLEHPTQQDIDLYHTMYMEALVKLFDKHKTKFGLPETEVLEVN
Assay: DGAT2 enzyme activity inhibition, Phospholipid FlashPlate SPA
Format: biochemical
Conditions: recombinant human DGAT2 membrane protein from Sf-21 cells; inhibition of [14C]-TG production; 37° C.
In short: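 Sf-21 membranes expressing recombinant human DGAT2 (2 μg) preincubated with compound (3 nM–10 μM, 1% DMSO) and 50 μM 1,2 sn-oleoyl glycerol, 20 min at 37 °C, then 1 μM [14C]oleoyl-CoA for 15 min. [14C]-TG counted by SPA; inhibition as % of untreated.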

Molecule	IC50 [nM]
CCOc1ccccc1O[C@@H]1CCCN(c2cncc(Nc3ccnc(-c4cccc(C(C)(C)C(=O)O)c4)n3)n2)C1 [Example 168, (R)-2-(3-(4-((6-(3-(2-ethoxyphenoxy)piperidin-1-yl)pyrazin-2-yl)amino)pyrimidin-2-yl)phenyl)-2-methylpropanoic Acid]	420
CCOc1ccccc1O[C@@H]1CCCN(c2cncc(Nc3ccnc(-c4ccc(C(C)(C)C(=O)O)cc4)n3)n2)C1 [Example 169, (R)-2-(4-(4-((6-(3-(2-ethoxyphenoxy)piperidin-1-yl)pyrazin-2-yl)amino)pyrimidin-2-yl)phenyl)-2-methylpropanoic Acid]	260
CCOc1ccccc1O[C@@H]1CCCN(c2cncc(Nc3ccnc(-c4cccc(CC(C)(C)C(=O)O)c4)n3)n2)C1 [Example 170, (R)-3-(3-(4-((6-(3-(2-ethoxyphenoxy)piperidin-1-yl)pyrazin-2-yl)amino)pyrimidin-2-yl)phenyl)-2,2-dimethylpropanoic Acid]	250
CCOc1cccnc1O[C@@H]1CCCN(c2cncc(Nc3ccnc(-c4cccc(CC(C)(C)C(=O)O)c4)n3)n2)C1 [Example 171, (R)-3-(3-(4-((6-(3-((3-ethoxypyridin-2-yl)oxy)piperidin-1-yl)pyrazin-2-yl)amino)pyrimidin-2-yl)phenyl)-2,2-dimethylpropanoic Acid]	240
CCOc1ccccc1O[C@@H]1CCCN(c2cncc(Nc3ccnc(-c4ccc(CC(C)(C)C(=O)O)cc4)n3)n2)C1 [Example 172, (R)-3-(4-(4-((6-(3-(2-ethoxyphenoxy)piperidin-1-yl)pyrazin-2-yl)amino)pyrimidin-2-yl)phenyl)-2,2-dimethylpropanoic Acid]	250
CCOc1cccnc1O[C@@H]1CCCN(c2cncc(Nc3ccnc(-c4ccc(CC(C)(C)C(=O)O)cc4)n3)n2)C1 [Example 173, (R)-3-(4-(4-((6-(3-((3-ethoxypyridin-2-yl)oxy)piperidin-1-yl)pyrazin-2-yl)amino)pyrimidin-2-yl)phenyl)-2,2-dimethylpropanoic Acid]	220
CCOc1ccccc1O[C@@H]1CCCN(c2cncc(Nc3ccnc(-c4cccc(OC(C)(C)C(=O)O)c4)n3)n2)C1 [Example 174, (R)-2-(3-(4-((6-(3-(2-ethoxyphenoxy)piperidin-1-yl)pyrazin-2-yl)amino)pyrimidin-2-yl)phenoxy)-2-methylpropanoic Acid]	480
CCOc1cccnc1O[C@@H]1CCCN(c2cncc(Nc3ccnc(-c4cccc(OC(C)(C)C(=O)O)c4)n3)n2)C1 [Example 175, (R)-2-(3-(4-((6-(3-((3-ethoxypyridin-2-yl)oxy)piperidin-1-yl)pyrazin-2-yl)amino)pyrimidin-2-yl)phenoxy)-2-methylpropanoic Acid]	1100
CCOc1ccccc1O[C@@H]1CCCN(c2cncc(Nc3nccc(-c4cccc(OC(C)(C)C(=O)O)c4)n3)n2)C1 [Example 176, (R)-2-(3-(2-((6-(3-(2-ethoxyphenoxy)piperidin-1-yl)pyrazin-2-yl)amino)pyrimidin-4-yl)phenoxy)-2-methylpropanoic Acid]	590
CCOc1cc(F)ccc1O[C@@H]1CCCN(c2cncc(Nc3cccc(-c4ccc(OC(C)(C)C(=O)O)cc4)n3)n2)C1 [Example 177, (R)-2-(4-(6-((6-(3-(2-ethoxy-4-fluorophenoxy)piperidin-1-yl)pyrazin-2-yl)amino)pyridin-2-yl)phenoxy)-2-methylpropanoic Acid]	380
CCOc1ccccc1O[C@@H]1CCCN(c2cncc(Nc3ccnc(-c4ccc(OC(C)(C)C(=O)O)cc4)n3)n2)C1 [Example 178, (R)-2-(4-(4-((6-(3-(2-ethoxyphenoxy)piperidin-1-yl)pyrazin-2-yl)amino)pyrimidin-2-yl)phenoxy)-2-methylpropanoic Acid]	490
CCOc1cccnc1O[C@@H]1CCCN(c2cncc(Nc3ccnc(-c4ccc(OC(C)(C)C(=O)O)cc4)n3)n2)C1 [Example 179, (R)-2-(4-(4-((6-(3-((3-ethoxypyridin-2-yl)oxy)piperidin-1-yl)pyrazin-2-yl)amino)pyrimidin-2-yl)phenoxy)-2-methylpropanoic Acid]	590
(R)-2-(4-((6-(3-(2-ethoxyphenoxy)pyridin-1-yl)pyrazin-2-yl)amino)phenyl)-2-methylpropanoic Acid [Example 28]	> 10000

Source: patent publication US12630528B2, “Amino aryl derivative useful as diacylglycerol acyltransferase 2 inhibitor and use thereof” (LG CHEM, LTD., priority 2019, dated 2026)
